Assay results: ChEMBL document CHEMBL1201862, “PubChem BioAssay data set” (2004)
Calls of active or inactive are those of the source.

What was measured:
Trypsin = Trypsin (Sus scrofa, UniProt P00761); experiment: porcine trypsin inhibitors, dose response, selectivity assay for Rce1 protease inhibitor project, biochemical, quenched peptide fluorescence, cherry-pick (AID 488789)
HEK293 [1] = experiment: cells; type: functional, cell-based; conditions: Homo sapiens
HEK293 [2] = experiment: cells; type: functional, cell-based; conditions: Homo sapiens; remark: listed apart in the source
HEK293 [3] = experiment: NOD2 signaling inhibitors in MDP-stimulated cells, cell-based, uHTS, luminescence (AID 2001); type: functional; conditions: Homo sapiens
[4] = target: Nucleotide-binding oligomerization domain-containing protein 2 (Homo sapiens, UniProt Q9HC29); experiment: NOD2 signaling inhibitors, cell-based, luminescence, uHTS, HEK293 (AID 1566); type: functional
Nucleotide-binding oligomerization domain-containing protein 2, sequence (Q9HC29 whole entry, the tested form may be a part): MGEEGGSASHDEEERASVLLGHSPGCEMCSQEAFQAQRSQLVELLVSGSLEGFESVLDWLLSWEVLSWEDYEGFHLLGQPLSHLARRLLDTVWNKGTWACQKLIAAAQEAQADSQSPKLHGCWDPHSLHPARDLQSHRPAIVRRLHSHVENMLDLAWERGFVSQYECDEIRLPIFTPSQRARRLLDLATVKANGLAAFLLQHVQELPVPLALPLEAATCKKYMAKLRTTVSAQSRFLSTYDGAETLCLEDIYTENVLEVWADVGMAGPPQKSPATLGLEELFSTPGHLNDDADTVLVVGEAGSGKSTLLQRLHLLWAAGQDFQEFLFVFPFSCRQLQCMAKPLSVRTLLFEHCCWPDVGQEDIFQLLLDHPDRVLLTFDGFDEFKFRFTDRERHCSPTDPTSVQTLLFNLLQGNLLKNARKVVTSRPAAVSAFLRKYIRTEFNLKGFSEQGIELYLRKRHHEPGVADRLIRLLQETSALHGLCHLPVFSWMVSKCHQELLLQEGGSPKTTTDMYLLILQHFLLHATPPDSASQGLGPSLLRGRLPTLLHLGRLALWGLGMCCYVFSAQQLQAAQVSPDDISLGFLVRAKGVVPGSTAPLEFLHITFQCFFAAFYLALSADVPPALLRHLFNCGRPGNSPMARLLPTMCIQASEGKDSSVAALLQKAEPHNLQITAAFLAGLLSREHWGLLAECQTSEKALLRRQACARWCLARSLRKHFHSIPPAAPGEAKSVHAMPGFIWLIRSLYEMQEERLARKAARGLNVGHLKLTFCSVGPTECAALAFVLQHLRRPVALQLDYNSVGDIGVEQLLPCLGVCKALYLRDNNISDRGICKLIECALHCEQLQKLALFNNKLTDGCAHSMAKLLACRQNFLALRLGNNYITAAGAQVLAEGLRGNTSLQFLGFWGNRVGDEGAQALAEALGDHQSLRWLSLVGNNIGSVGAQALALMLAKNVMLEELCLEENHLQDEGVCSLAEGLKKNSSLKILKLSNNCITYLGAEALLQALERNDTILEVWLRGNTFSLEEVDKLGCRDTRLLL

HEK293 [5] = experiment: NOD1 signaling inhibitors, primary screen, cell-based, luminescence, uHTS (AID 1578); type: functional; conditions: Homo sapiens
HEK293 [6] = experiment: cells; type: functional, cell-based; conditions: Homo sapiens; remark: listed apart in the source
[7] = A cytotoxicity screen of small molecule inhibitors of the PhoP region in Salmonella typhi identified in the primary screen. [Related pubchem assays: 1850, 1864, 1985 ]; type: functional
[8] = target: Voltage-dependent T-type calcium channel subunit alpha-1H (Homo sapiens, UniProt O95180); type: functional;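 also: channel activity triggered by adding a high calcium stimulation buffer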
Voltage-dependent T-type calcium channel subunit alpha-1H, sequence (O95180 whole entry): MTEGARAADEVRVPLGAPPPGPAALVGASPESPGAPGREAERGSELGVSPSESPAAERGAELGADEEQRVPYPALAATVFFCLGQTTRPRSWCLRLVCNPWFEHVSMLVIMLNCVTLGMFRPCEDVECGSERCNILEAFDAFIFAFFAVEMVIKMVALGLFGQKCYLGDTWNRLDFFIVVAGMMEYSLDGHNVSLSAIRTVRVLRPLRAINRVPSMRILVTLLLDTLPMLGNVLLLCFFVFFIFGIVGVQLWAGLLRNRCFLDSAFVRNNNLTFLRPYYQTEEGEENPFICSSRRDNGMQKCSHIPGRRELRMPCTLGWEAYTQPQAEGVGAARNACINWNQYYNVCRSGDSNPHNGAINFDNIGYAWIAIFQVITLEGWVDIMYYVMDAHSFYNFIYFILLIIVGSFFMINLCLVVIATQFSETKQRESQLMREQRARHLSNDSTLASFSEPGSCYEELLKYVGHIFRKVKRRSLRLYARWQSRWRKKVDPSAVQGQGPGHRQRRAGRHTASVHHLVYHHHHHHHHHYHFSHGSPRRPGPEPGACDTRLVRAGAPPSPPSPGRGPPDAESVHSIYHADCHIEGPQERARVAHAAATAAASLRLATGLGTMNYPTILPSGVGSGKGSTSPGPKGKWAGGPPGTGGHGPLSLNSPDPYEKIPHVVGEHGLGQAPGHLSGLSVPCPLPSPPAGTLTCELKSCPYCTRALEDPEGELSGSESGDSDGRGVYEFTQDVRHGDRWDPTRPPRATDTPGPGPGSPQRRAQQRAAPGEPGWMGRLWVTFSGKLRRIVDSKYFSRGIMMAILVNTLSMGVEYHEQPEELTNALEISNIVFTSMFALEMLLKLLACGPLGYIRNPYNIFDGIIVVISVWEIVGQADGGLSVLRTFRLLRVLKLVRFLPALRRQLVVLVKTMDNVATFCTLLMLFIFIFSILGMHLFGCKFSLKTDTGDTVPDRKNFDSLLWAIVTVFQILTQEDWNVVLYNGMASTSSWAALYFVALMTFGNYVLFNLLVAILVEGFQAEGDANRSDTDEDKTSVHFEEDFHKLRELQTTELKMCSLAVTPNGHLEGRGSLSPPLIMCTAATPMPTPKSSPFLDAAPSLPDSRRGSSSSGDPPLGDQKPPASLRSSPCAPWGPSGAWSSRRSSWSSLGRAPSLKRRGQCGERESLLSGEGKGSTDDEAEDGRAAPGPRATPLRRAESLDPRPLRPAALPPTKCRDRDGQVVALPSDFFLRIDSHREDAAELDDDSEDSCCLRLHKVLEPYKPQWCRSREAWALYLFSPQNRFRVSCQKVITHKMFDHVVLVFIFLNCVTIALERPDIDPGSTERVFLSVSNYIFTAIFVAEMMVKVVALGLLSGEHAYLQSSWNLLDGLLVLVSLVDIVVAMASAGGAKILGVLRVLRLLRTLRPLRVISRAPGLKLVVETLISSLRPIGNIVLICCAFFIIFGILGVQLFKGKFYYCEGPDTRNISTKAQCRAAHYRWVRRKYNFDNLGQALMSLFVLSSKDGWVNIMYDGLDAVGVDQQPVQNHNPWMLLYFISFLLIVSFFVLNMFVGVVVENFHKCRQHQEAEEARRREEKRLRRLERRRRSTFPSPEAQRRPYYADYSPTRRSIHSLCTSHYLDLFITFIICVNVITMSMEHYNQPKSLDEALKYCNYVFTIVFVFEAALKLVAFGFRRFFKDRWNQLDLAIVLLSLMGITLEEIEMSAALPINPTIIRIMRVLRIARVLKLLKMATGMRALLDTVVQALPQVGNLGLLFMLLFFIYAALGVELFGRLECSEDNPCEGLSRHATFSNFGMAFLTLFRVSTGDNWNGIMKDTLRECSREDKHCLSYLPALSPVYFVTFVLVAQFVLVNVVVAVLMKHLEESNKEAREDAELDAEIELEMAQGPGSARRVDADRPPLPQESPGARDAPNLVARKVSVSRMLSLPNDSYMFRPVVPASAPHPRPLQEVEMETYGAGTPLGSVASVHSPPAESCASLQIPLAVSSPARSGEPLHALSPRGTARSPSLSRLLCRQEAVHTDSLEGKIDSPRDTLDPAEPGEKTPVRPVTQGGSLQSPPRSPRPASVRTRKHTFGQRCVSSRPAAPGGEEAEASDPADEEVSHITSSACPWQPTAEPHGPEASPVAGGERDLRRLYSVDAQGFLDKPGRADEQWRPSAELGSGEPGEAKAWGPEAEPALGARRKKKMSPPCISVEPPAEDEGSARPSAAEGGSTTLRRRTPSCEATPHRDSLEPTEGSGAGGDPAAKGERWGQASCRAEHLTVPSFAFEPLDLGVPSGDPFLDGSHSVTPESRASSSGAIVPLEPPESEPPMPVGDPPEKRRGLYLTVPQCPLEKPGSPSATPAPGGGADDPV

[9] = target: DNA dC->dU-editing enzyme APOBEC-3G (Homo sapiens, UniProt Q9HC16); experiment: Dose Response confirmation of small molecule APOBEC3G DNA Deaminase Inhibitors via a fluorescence-based single-stranded DNA deaminase assay. [Related pubchem assays (depositor defined):AID493012, AID493028]; type: functional
DNA dC->dU-editing enzyme APOBEC-3G, sequence (Q9HC16 whole entry): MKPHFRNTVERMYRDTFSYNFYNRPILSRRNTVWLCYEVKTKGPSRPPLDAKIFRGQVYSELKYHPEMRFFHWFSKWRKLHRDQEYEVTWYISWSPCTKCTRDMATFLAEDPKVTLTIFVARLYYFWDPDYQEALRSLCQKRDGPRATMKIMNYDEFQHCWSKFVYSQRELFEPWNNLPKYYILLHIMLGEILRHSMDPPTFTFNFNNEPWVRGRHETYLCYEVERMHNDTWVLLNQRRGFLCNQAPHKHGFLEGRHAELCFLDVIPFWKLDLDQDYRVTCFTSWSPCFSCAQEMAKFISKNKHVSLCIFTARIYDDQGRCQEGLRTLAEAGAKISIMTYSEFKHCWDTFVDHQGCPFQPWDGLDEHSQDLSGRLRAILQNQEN

Protein RecA = target: T1, Protein RecA (Mycobacterium tuberculosis, UniProt P9WHJ3); experiment: Fluorescence Cell-Free Homogeneous Dose Retest to Identify Inhibitors of RecA-Intein Splicing Activity. [Related pubchem assays (depositor defined):AID2097, AID2223, AID489010, AID492950]; type: functional
T1 sequence (P9WHJ3 whole entry): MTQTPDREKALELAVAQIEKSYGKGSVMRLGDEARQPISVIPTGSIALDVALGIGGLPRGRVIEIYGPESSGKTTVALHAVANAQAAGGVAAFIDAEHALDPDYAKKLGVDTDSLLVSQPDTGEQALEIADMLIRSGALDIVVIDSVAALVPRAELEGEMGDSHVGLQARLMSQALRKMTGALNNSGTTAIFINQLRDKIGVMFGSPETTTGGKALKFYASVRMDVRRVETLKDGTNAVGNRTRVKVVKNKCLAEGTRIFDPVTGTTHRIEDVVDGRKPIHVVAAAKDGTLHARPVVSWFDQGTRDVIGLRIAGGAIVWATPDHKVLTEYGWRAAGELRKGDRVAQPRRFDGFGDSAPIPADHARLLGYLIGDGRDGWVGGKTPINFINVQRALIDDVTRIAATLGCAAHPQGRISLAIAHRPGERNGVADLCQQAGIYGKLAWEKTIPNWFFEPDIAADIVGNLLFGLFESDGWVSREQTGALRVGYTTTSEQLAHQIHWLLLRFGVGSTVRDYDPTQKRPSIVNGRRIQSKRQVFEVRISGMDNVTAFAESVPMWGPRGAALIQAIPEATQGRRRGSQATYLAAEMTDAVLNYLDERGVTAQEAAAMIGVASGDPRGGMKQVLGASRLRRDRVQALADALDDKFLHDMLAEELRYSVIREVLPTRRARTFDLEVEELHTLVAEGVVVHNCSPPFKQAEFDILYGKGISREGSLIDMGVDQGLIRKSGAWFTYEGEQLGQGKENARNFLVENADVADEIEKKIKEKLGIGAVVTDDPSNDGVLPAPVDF

Leucine aminopeptidase = target: T2, Leucine aminopeptidase (Plasmodium falciparum 3D7, UniProt Q8IL11); experiment: P. falciparum M17LAP inhibitors, primary screen, biochemical, fluorogenic H-Leu-NHMec substrate, 1536-well (AID 1619); type: functional
T2 sequence (Q8IL11 whole entry): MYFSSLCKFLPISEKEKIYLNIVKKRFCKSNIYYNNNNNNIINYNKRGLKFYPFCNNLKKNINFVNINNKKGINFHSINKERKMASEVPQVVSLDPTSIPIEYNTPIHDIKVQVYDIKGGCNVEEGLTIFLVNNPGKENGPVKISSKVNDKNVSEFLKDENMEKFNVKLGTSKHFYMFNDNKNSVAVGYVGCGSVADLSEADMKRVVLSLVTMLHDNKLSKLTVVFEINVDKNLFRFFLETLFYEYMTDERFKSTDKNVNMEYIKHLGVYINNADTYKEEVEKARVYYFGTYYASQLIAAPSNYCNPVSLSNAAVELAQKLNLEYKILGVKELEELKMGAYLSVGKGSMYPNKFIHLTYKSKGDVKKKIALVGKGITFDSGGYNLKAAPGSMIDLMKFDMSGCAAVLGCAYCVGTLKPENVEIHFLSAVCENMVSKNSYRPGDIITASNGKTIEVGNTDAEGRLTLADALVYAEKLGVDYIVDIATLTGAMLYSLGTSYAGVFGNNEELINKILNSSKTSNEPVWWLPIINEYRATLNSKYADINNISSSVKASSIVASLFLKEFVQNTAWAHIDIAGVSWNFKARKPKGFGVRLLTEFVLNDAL

[10] = target: T3, Replicative DNA helicase DnaB (Mycobacterium tuberculosis, UniProt P9WMR3); experiment: DnaB intein splicing inhibitors, dose response, biochemical, cell-free fluorescence (AID 449749); type: functional
T3 sequence (P9WMR3 whole entry): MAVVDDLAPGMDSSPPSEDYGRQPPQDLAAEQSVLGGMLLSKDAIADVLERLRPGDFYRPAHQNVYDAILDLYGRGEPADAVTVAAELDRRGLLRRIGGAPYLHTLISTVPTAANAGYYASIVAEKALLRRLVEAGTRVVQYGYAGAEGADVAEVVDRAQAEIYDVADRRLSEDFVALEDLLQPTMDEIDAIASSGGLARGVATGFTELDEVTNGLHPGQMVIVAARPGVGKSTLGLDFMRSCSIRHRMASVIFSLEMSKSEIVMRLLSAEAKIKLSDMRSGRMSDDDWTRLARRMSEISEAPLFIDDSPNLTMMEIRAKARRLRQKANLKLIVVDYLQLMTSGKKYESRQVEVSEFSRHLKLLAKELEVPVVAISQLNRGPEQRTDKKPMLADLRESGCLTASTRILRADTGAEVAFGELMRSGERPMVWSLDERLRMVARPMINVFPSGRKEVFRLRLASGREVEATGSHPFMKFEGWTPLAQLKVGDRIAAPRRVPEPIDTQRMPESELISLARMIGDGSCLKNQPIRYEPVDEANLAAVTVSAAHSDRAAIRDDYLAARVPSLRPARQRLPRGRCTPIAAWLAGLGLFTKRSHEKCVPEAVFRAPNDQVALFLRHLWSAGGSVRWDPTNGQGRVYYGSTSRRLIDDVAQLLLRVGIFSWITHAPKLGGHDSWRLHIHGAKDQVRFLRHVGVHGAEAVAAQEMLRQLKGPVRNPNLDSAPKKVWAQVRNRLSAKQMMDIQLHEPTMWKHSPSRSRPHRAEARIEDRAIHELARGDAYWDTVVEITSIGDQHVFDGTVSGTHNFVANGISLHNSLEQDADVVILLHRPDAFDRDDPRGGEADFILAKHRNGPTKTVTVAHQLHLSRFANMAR

Aminopeptidase N = target: T4, Aminopeptidase N (Plasmodium falciparum FcB1/Columbia, UniProt O96935); experiment: P. falciparum M1AAP inhibitors, biochemical, fluorogenic H-Leu-NHMec substrate, 1536-well (AID 1445); set-up: species or system Plasmodium falciparum 3D7, 3D7
T4 sequence (O96935 whole entry): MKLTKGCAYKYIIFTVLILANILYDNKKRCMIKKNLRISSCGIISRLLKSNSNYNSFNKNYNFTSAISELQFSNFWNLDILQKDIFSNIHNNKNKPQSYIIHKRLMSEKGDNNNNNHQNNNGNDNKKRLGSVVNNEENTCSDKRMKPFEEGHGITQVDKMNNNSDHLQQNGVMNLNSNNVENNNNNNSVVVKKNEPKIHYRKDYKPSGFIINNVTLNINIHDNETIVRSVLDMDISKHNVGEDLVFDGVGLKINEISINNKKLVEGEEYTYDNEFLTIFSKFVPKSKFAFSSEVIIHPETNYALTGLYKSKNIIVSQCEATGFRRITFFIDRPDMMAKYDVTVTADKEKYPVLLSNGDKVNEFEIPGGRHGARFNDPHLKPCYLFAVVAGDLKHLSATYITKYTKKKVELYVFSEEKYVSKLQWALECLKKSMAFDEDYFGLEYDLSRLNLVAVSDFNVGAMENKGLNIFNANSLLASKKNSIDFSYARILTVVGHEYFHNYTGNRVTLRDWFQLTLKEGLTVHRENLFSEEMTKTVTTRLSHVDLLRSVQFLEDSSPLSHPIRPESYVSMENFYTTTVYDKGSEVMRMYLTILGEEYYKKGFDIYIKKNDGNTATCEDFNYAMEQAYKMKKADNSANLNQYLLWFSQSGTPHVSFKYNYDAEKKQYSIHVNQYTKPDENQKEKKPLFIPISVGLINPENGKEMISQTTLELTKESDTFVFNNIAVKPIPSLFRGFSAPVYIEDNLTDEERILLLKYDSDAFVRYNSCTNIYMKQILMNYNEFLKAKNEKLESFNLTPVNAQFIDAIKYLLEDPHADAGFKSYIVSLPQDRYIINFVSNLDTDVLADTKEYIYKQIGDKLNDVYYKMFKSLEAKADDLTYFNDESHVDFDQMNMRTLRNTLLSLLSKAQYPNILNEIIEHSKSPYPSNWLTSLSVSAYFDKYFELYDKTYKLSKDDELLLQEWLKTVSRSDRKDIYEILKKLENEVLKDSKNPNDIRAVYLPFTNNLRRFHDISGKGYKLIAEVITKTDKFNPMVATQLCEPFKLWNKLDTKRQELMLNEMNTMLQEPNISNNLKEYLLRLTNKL

[11] = target: T5, Rac GTPase-activating protein 1 (Homo sapiens, UniProt Q9H0H5); experiment: MgcRacGAP GTPase-activating activity inhibitors, confirmation, biochemical, ADP Hunter fluorescence, primary and confirmatory (AID 624330); type: functional
T5 sequence (Q9H0H5 whole entry): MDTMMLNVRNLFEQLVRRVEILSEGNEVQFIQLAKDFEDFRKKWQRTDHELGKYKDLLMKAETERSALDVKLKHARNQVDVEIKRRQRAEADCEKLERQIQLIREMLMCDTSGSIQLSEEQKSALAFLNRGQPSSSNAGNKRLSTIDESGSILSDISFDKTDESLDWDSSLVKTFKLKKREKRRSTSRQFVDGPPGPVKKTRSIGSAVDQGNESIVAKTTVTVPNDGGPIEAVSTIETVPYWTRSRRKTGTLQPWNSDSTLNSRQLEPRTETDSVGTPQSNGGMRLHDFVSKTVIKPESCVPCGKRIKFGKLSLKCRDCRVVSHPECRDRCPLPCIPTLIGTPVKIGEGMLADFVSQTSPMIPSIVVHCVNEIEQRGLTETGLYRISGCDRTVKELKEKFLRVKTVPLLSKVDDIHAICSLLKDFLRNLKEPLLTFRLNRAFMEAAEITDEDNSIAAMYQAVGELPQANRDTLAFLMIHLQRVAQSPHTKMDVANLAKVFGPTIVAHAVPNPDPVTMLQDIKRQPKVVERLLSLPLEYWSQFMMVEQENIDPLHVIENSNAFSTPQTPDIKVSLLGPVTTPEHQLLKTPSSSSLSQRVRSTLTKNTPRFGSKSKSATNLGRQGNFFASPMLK

[12] = HeLa cell cytotoxicity, dose response, cytotoxicity control for MgcRacGAP inhibitor project (AID 624300); type: functional
[13] = cytotoxicity toward NIH3T3 fibroblasts, dose response, counter-screen, cell-based, ATP luminescence, mouse fibroblasts (AID 2010); type: functional;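 also: cells exposed to compound for about 90 hours before reading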
CAAX prenyl protease 2 = target: T6, CAAX prenyl protease 2 (Saccharomyces cerevisiae S288c, UniProt Q03530); type: biochemical
T6 sequence (Q03530 whole entry): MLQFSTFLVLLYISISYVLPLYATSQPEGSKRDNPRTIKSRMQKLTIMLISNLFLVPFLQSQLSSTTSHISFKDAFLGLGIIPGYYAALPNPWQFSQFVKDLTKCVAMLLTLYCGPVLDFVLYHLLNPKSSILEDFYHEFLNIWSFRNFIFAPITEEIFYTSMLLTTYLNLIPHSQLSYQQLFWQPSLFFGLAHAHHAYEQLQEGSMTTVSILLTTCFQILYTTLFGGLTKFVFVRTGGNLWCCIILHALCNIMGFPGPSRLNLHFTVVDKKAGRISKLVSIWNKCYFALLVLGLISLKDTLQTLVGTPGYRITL

[14] = inhibitors of intracellular T. cruzi replication, confirmation, NIH3T3 host cells, beta-gal luminescence (AID 2044); type: functional, cell-based;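 also: intracellular parasites grown in NIH/3T3 mouse fibroblasts as host cells; luminescent beta-galactosidase reporter signal from transgenic T. cruzi replicating inside host cells; inhibitors lower the luminescence signal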

Trypsin, sequence (P00761 whole entry): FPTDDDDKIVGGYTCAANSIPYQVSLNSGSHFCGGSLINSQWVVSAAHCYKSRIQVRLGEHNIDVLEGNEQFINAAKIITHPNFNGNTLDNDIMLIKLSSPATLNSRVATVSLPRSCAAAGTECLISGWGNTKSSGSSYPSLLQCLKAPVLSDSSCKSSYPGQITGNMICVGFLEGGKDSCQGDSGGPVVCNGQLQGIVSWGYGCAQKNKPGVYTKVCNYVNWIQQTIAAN

In the case of `COCCCn1c(N)c(C(=O)NCc2ccco2)c2nc3ccccc3nc21`, the AC50 (Trypsin) is reported as 10.3 µM (active).

In the case of `COc1ccc(-c2c[nH]nc2-c2ccc(OCc3ccccc3F)cc2O)cc1OC`, the IC50 (HEK293 [1]) is reported as > 20 µM (inactive), the IC50 (HEK293 [2]) is reported as 6.09 µM (active) and the IC50 (HEK293 [3]) is reported as 7.5 µM (active). For the same compound, the EC50 [4] was > 20 µM (inactive), the EC50 (HEK293 [5]) was 9.16 µM (active) and the IC50 (HEK293 [6]) was 11.7 µM (active).

For `CCC1Oc2ccc(C)cc2N(CC(=O)NCC2COc3ccccc3O2)C1=O` (stereo not drawn), the EC50 [7] was > 50 µM (active) and the EC50 [8] was 5.63 µM (active).

With `O=c1oc2ccccc2nc1/C=C(\O)c1ccccc1` the EC50 [7] was > 50 µM (active).

With `O=C(O)c1ccc(-n2c(-c3ccc(Br)cc3)n[nH]c2=S)cc1` the IC50 [9] was 9.1 µM (active).

For `Cc1ccc(SCc2n[nH]c3c2C2(CCSCC2)C(C#N)=C(N)O3)cc1`, the EC50 (Protein RecA) was 2.42 µM (active), the IC50 (Leucine aminopeptidase) was 91 µM (active) and the AC50 [10] was 2.94 µM (active).

With `CCCN(CCC)CC(=O)Nc1cccc2c1OCO2` the EC50 [7] was > 50 µM (active).

With `COc1ccc(S(=O)(=O)NC2=NC(=O)/C(=C\c3cc(OC)c(OC)cc3[N+](=O)[O-])S2)cc1` the IC50 (Aminopeptidase N) was 22.4 µM (active).

With `COc1ccc(C2CC(c3ccc4ccccc4c3)=NN2C(=O)CNC2CCCCC2)cc1` (stereo not drawn) the IC50 [11] was 110 µM (active), the CC50 [12] was 39 µM (active) and the EC50 [13] was > 30 µM (not active). For the same compound, the AC50 (Trypsin) was > 100 µM (inactive), the AC50 (CAAX prenyl protease 2) was 9.16 µM (active) and the EC50 [14] was 2.76 µM (active).

For `O=C(Nc1cc(S(=O)(=O)N2CCOCC2)ccc1N1CCCCC1)c1ccc(Cl)cc1`, the IC50 [9] was 50.5 µM (active).
